The record followed here is patent US8637681B2, “Pyrrolyl substituted dihydroindol-2-one derivatives, preparation methods and uses thereof” (Qilu Pharmaceutical Co., Ltd., priority 2010, dated 2014).

Series [1] has as its system human colon cancer HT 29 transplanted tumor. Kind of series: Nude mice transplanted tumor test. Particulars: for Dead animal number / inhibition in vivo at 80 mg/kg / d21 Wave ± SD (average bodyweight of nude mice) / d21 Vave ± SD (average tumor volume) / d21 RTV ± SD (relative tumor volume): 80 mg/kg intragastrically each day for 20 days; for Dead animal number: dead/total animals; for inhibition in vivo at 80 mg/kg: Mus musculus, HT-29, po, 504 h, (1−T/C)×100%, read-out: Tumor inhibition rate d21 (%); for inhibition in vivo at 80 mg/kg / d21 Wave ± SD (average bodyweight of nude mice) / d21 Vave ± SD (average tumor volume) / d21 RTV ± SD (relative tumor volume): d21; for d0 Wave ± SD (average bodyweight of nude mice): d0, at grouping before administration (baseline); for d21 Vave ± SD (average tumor volume): HT 29 in nude mice; for d21 RTV ± SD (relative tumor volume): RTV=Vt/V0. In kind it is in vivo, female Balb/cA nude mice. Details: key to d21 Vave ± SD (average tumor volume): tumor volume TV = ½×a×b² (a, b = major, minor diameter), in mm³. In a few lines:
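Female Balb/cA nude mice bearing HT 29 colon tumour fragments in the right axilla, grouped at about 120 mm^3, received 80 mg/kg intragastrically daily for 20 days; vehicle was water with 0.1% Tween 80. Tumour volume (½×a×b^2) measured 2-3 times weekly, expressed as relative tumour volume Vt/V0.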

Series [2] concerns three kinds of tumor cells (A549, Hela, A431). Kind of series: Cytotoxicity test, summary over the three tumor cell lines. In kind it is cell-based, human. Particulars: compared with positive control Sunitinib. Here is the method:
Cytotoxicity of the compounds of the present invention was tested with human non-small cell lung cancer cells A549, human cervical cancer Hela cells, human skin cancer cells A431. The test was performed by referring to the method described by Rusnak et al (Rusnak D. W., et al., Cell Prolif., 2007, 40, 580-94).
In Dulbecco's Modified Eagle Medium (DMEM) comprising 10% fetal bovine serum, 2 mM glutamine and non-essential amino acids, cells were cultured at 37° C. in 5% CO2 cell incubator. Trypsin/ethylenediamine tetraacetic acid (EDTA) were used to harvest cells in cell culture bottle. The cells were added to a 96-well cell culture plate, 4000/well (0.1 ml medium), adhering wall overnight, 0.1 ml of the diluted solution of the compounds to be tested was added, the final concentration of DMSO was 0.25%. The cell culture plate was incubated at 37° C., 5% CO2 conditions for 72 h. The change of cellular morphology was observed under microscope, and then 50 μl of 50% (mass/volume) trichloroacetic acid (TCA) was added to each well to fix cells. The final concentration of TCA was 10%. It stood for 5 min, than was placed in 4° C. refrigerator for 1 h, the wells of the culture plate were washed with deionized water for 5 times to remove TCA, drained, dried in air until no wet trace was observed. 100 μl of 0.4% (mass/volume) SRB was added to each well, stood at room temperature for 10 min. The liquid in each well was discarded, and then the wells were washed with 1% acetic acid for 5 times, dried in air, extracted with 150 μl of 10 mM Tris base (trihydroxymethylaminomethane, pH 10.5). The absorption at a wavelength of 540 nm was measured. The IC50 (μM) of the compound was calculated using Logit method.

A short description of series [3]: Cytotoxicity test (SRB), A549. In kind it is cell-based. The note with it: human, A549 non-small cell lung cancer cells. In a few lines: (§1)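 Cells seeded at 4000/well in DMEM with 10% FBS, adhered overnight, then treated 72 h at 37° C, 5% CO2 with compound (final DMSO 0.25%). TCA-fixed and stained with SRB, A540 read. IC50 (μM) calculated by Logit method.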
The nature of series [4]: Cytotoxicity test (SRB), A431. It is filed as cell-based. Particulars: human, A431 skin cancer cells. An outline of the steps:
as §1

For series [5], the system named is arterial ring angiogenesis in rats. Put plainly: Inhibitory actions on arterial ring angiogenesis in rats. In kind it is cell-based. The note with it: Rattus norvegicus, area covered by micrangiums vs control well, read-out: Inhibitory rate (%); for inhibition at 0.2 µg/mL: 0.2 μg/ml; for inhibition at 1 µg/mL: 1 μg/ml; for inhibition at 5 µg/mL: 5 μg/ml. In a few lines:
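Rat thoracic aorta cut into 1 mm rings, embedded in Matrigel and cultured at 37 °C with compound; medium and drug renewed every 3 days. Microvessel sprouting area imaged by microscopy; inhibition (%) = (control area − drug area)/control area × 100.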

Series [6] is described as follows: Cytotoxicity test (SRB), Hela. In kind it is cell-based. The note with it: human, Hela cervical cancer cells. In a few lines:
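A549, Hela and A431 cells seeded at 4000/well, adhered overnight, then exposed to compound dilutions (final DMSO 0.25%) for 72 h at 37° C., 5% CO2. SRB read-out: absorbance at 540 nm; IC50 (μM) calculated by Logit method.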

SMILES strings stand for the structures. Bounds are passed on as bounds.

As usually defined, the IC50 is the point on the concentration scale where inhibition reaches its midpoint. `Cc1[nH]c(/C=C2\C(=O)Nc3ccc(F)cc32)c(C)c1NC(=O)CCN(C)C` [Compound 6, N-{5-[5-fluoro-2-oxo-1,2-dihydro-indol-(3Z)-ylidenemethyl]-2,4-dimethyl-1H-pyrrol-3-yl}-3-(N,N-dimethylamino)propionamide]: in series [1], the Dead animal number was 0/6, the inhibition in vivo at 80 mg/kg worked out at 84.7%, the “d0 Wave ± SD (average bodyweight of nude mice)” value (“d0 Wave ± SD” below) came out at 18.7 ± 0.38 and the “d21 Wave ± SD (average bodyweight of nude mice)” value (from here on “d21 Wave ± SD”) was found to be 20.4 ± 0.49. In addition, the “d21 RTV ± SD (relative tumor volume)” value in series [1] is 1.10 ± 0.38. In addition, in series [1] (in mm³ (unit assumed)), the “d21 Vave ± SD (average tumor volume)” value amounted to 130.7 ± 37.4. Also, the “Cytotoxicity to tumor cells (in words)” value in series [2] is listed as “certain toxicity to some cells”. Moreover, the IC50 at 72 h in series [3] is above 30 µM. In addition, in series [4], the IC50 at 72 h is above 30 µM. Besides, in series [5], the inhibition at 0.2 µg/mL was 92%, the inhibition at 1 µg/mL was found to be 100% and the inhibition at 5 µg/mL was found to be 100%. The compound further displayed an IC50 at 72 h in series [6] of 8.08 µM.
For the compound `CCN(CC)CCS(=O)(=O)Nc1c(C)[nH]c(/C=C2\C(=O)Nc3ccc(F)cc32)c1C` [Compound 9, N-{5-[5-fluoro-2-oxo-1,2-dihydro-indol-(3Z)-ylidenemethyl]-2,4-dimethyl-1H-pyrrol-3-yl}-2-(N,N-diethylamino)ethylsulfonamide], in series [1], the Dead animal number is reported as 0/6, the inhibition in vivo at 80 mg/kg came to 63%, the “d0 Wave ± SD” value is 19.6 ± 0.25 and the “d21 Wave ± SD” value is 21.4 ± 0.38. Moreover, in series [1], the “d21 Vave ± SD (average tumor volume)” value worked out at 328.3 ± 45.4 and the “d21 RTV ± SD (relative tumor volume)” value was determined as 2.66 ± 0.69. For the same compound, the “Cytotoxicity to tumor cells (in words)” value in series [2] is listed as “certain toxicity to some cells”. Moreover, the IC50 at 72 h in series [3] is above 30 µM. The compound also had an IC50 at 72 h in series [4] of 8.58 µM. In series [5], the inhibition at 0.2 µg/mL stood at 93%, the inhibition at 1 µg/mL was found to be 100% and the inhibition at 5 µg/mL is 100%. The compound also yielded an IC50 at 72 h in series [6] above 30 µM.
For `C=CC(=O)Nc1c(C)[nH]c(/C=C2\C(=O)Nc3ccc(F)cc32)c1C` [Compound 7, N-{5-[5-fluoro-2-oxo-1,2-dihydro-indol-(3Z)-ylidenemethyl]-2,4-dimethyl-1H-pyrrol-3-yl}-acrylamide], in series [1], the Dead animal number is 0/6, the inhibition in vivo at 80 mg/kg came out at 59.8%, the “d0 Wave ± SD” value is reported as 19.4 ± 0.41 and the “d21 Wave ± SD” value is reported as 20.9 ± 0.38. Further, in series [1], the “d21 Vave ± SD (average tumor volume)” value was 359.8 ± 45.4 and the “d21 RTV ± SD (relative tumor volume)” value came to 2.89 ± 1.05. Moreover, the “Cytotoxicity to tumor cells (in words)” value in series [2] is reported as “certain toxicity to some cells”. For the same compound, the IC50 at 72 h in series [3] was above 30 µM. The compound further had an IC50 at 72 h in series [4] above 30 µM. Moreover, in series [5], the inhibition at 0.2 µg/mL worked out at 95%, the inhibition at 1 µg/mL is 100% and the inhibition at 5 µg/mL came to 100%. Besides, the IC50 at 72 h in series [6] is 6.78 µM.
Consider `CCN(CC)CC(=O)Nc1c(C)[nH]c(/C=C2\C(=O)Nc3ccc(F)cc32)c1C` [Compound 20, N-{5-[5-fluoro-2-oxo-1,2-dihydro-indol-(3Z)-ylidenemethyl]-2,4-dimethyl-1H-pyrrol-3-yl}-2-(N,N-diethylamino)acetamide], for which, in series [1], the Dead animal number is on record as 0/6, the inhibition in vivo at 80 mg/kg was determined as 89.4%, the “d0 Wave ± SD” value worked out at 19.6 ± 0.69 and the “d21 Wave ± SD” value stood at 20.3 ± 0.63. Besides, the “d21 RTV ± SD (relative tumor volume)” value in series [1] is 0.76 ± 0.32. Further, the “Activity of inhibiting HT-29 transplanted tumor in vivo (in words)” value in series [1] (80 mg/kg, compared with positive control Sunitinib) is on record as “inhibitory activity comparable to the positive control Sunitinib”. Besides, the “d21 Vave ± SD (average tumor volume)” value in series [1] (in mm³ (unit assumed)) was found to be 93.5 ± 42.8. Further, the “Cytotoxicity to tumor cells (in words)” value in series [2] is recorded as “certain toxicity to some cells”. This compound also registered an IC50 at 72 h in series [3] above 30 µM. The same compound yielded an IC50 at 72 h in series [4] above 30 µM. In series [5], the inhibition at 0.2 µg/mL came to 98%, the inhibition at 1 µg/mL was 100% and the inhibition at 5 µg/mL stood at 100%. In series [6], this compound returned an IC50 at 72 h of 5.21 µM.
For `Cc1[nH]c(/C=C2\C(=O)Nc3ccc(F)cc32)c(C)c1NC(=O)CCN1CCOCC1` [Compound 12, N-{5-[5-fluoro-2-oxo-1,2-dihydro-indol-(3Z)-ylidenemethyl]-2,4-dimethyl-1H-pyrrol-3-yl}-3-(morpholin-4-yl)propionamide], in series [1], the Dead animal number was 0/6, the inhibition in vivo at 80 mg/kg came to 79.8%, the “d0 Wave ± SD” value is listed as 17.2 ± 0.54 and the “d21 Wave ± SD” value came out at 19.1 ± 0.57. In addition, the “d21 RTV ± SD (relative tumor volume)” value in series [1] came to 1.45 ± 0.37. Moreover, in series [1] (in mm³ (unit assumed)), the “d21 Vave ± SD (average tumor volume)” value is 197.9 ± 48.1. Also, the “Cytotoxicity to tumor cells (in words)” value in series [2] was “certain toxicity to some cells”. This compound displayed an IC50 at 72 h in series [3] above 30 µM. The same compound registered an IC50 at 72 h in series [4] of 7.59 µM. Moreover, in series [5], the inhibition at 0.2 µg/mL came to 94%, the inhibition at 1 µg/mL came out at 100% and the inhibition at 5 µg/mL was found to be 100%. The half-maximal inhibitory concentration (IC50) at 72 h in series [6] is 4.75 µM.
